# Source: patent US12396458B2, “Fused ring substituted aromatic compound and preparation method therefor, herbicidal composition, and use thereof” (Qingdao Kingagroot Chemical Compound Co., Ltd., priority 2020, dated 2025)
# Key:
# Assay in all cases: Weeding effect in post-emergence stage (greenhouse pot test)
# Assay type in all cases: in vivo
# [1] = tested on: Capsella bursa-pastoris; details: 3 weeks after application, fresh weight control rate
# Text: (§1) The activity level criteria for plant damage (i.e., growth control rate) are as follows:
# (§2) Level 5: growth control rate is above 85%; • Level 4: growth control rate is greater than or equal to 60% and less than 85%; • Level 3: growth control rate is greater than or equal to 40% and less than 60%; • Level 2: growth control rate is greater than or equal to 20% and less than 40%; • Level 1: growth control rate is greater than or equal to 5% and less than 20%; • Level 0: growth control rate is less than 5%.
# (§3) The above growth control rates are fresh weight control rates.
# (§4) Experiment on weeding effect in post-emergence stage:
# (§5) Monocotyledonous and dicotyledonous weed seeds (Descurainia sophia, Capsella bursa-pastoris, Abutilon theophrasti, Galium aparine, Stellaria media, Lithospermum arvense, Rorippa indica, Alopecurus aequalis, Alopecurus japonicus, Eleusine indica, Beckmannia syzigachne, Sclerochloa dura, Phleum paniculatum, Veronica didyma Tenore, Bromus japonicus, Aegilops tauschii, Phalaris arundinacea, Amaranthus retrojlexus, Chenopodiaceae, Commelina communis, Sonchus arvensis, convolvulus arvensis, Cirsium setosum, Solanum nigrum, Acalypha australis, Digitaria sanguinalis, Echinochloa crusgalli, Setaria viridis, Setaria glauca, Leptochloa chinensis, Monochoria vaginalis, Sagittaria trifolia, Scirpus juncoides, Cyperus rotundus, Cyperus iria, Cyperus difformis, Fimbristylis, Portulaca oleracea, Xanthium sibiricum, Pharbitis nil, Conyza japonica, etc.) and major crop seeds (wheat, corn, rice, soybean, cotton, oilseed rape, millet, sorghum, potato, sesame, ricinus, etc.) were placed in plastic pots filled with soil, then covered with 0.5-2 cm of soil, allowed to grow in a good greenhouse environment. After 2 weeks of sowing, the test plants were treated in the 2-3 leaf stage. The tested compounds of the present invention were respectively dissolved in acetone, then added with Tween 80 and 1.5 liter/ha of emulsifiable concentrate of methyl oleate as synergist, diluted with a certain amount of water to obtain a solution with a certain concentration, and sprayed with a spray tower onto the plants. After the application, the plants were cultured for 3 weeks in the greenhouse, and then the experimental results of the weeding were counted. The doses of the used compounds were 500, 250, 125, 60, 15, 7.5 g a.i./ha, and the averages were obtained by repeating for three times.
# [2] = tested on: Conyza japonica; details: post-emergence, 3 weeks after application, fresh weight control rate
# Text: as §1, §2, §3, §4, §5
# [3] = tested on: Alopecurus japonicus; details: dose 15 g a.i./ha, 3 weeks after application, fresh weight control rate
# Text: as §1, §2, §3, §4, §5
compound,measurement,setting,value
COC(=O)C12CCCC1C(c1cc(N3C(=O)C4CCCCC4C3=O)c(F)cc1Cl)=NO2 (centres unmarked) [Compound 545],"Activity level (growth control rate), Capsella bursa-pastoris",[1]; dose 125 g a.i./ha,5 (Level 5: growth control rate is above 85%)
O=C1C2CC=CCC2C(=O)N1c1cc(C2=NOC3(C(=O)O)CCCC23)c(Cl)cc1F (centres unmarked) [Compound 546],"Activity level (growth control rate), Capsella bursa-pastoris",[1]; dose 125 g a.i./ha,5 (Level 5: growth control rate is above 85%)
COC(=O)C12CCCC1C(c1cc(N3C(=O)CC(C)CC3=O)c(F)cc1Cl)=NO2 (centres unmarked) [Compound 547],"Activity level (growth control rate), Capsella bursa-pastoris",[1]; dose 125 g a.i./ha,5 (Level 5: growth control rate is above 85%)
COC(=O)C12CCCC1C(c1cc(-n3c(=O)c4ccccc4n(C)c3=O)c(F)cc1Cl)=NO2 (centres unmarked) [Compound 551],"Activity level (growth control rate), Capsella bursa-pastoris",[1]; dose 125 g a.i./ha,5 (Level 5: growth control rate is above 85%)
CCCN1C(=O)C(=O)N(c2cc(C3=NOC4(C(=O)OC)CCCC34)c(Cl)cc2F)C1=S (centres unmarked) [Compound 552],"Activity level (growth control rate), Capsella bursa-pastoris",[1]; dose 125 g a.i./ha,5 (Level 5: growth control rate is above 85%)
CCCNC(=O)C12CCCC1C(c1cc(N3C(=O)C(=O)N(CCC)C3=S)c(F)cc1Cl)=NO2 (centres unmarked) [Compound 553],"Activity level (growth control rate), Capsella bursa-pastoris",[1]; dose 15 g a.i./ha,5 (Level 5: growth control rate is above 85%)
COC(=O)C12CCCC1C(c1cc(-n3nc4n(c3=O)CCCC4)c(F)cc1Cl)=NO2 (centres unmarked) [Compound 561],"Activity level (growth control rate), Capsella bursa-pastoris",[1]; dose 125 g a.i./ha,5 (Level 5: growth control rate is above 85%)
COC(=O)C12CCCC1C(c1cc(/N=c3\scc(C(F)(F)F)n3C)c(F)cc1Cl)=NO2 (centres unmarked) [Compound 574],"Activity level (growth control rate), Capsella bursa-pastoris",[1]; dose 15 g a.i./ha,5 (Level 5: growth control rate is above 85%)
same,"Activity level (growth control rate), Conyza japonica",[2]; dose 15 g a.i./ha,5 (Level 5: growth control rate is above 85%)
COC(=O)C12CCCC1C(c1cc(-c3nnc(C(F)(F)F)cc3O)c(F)cc1Cl)=NO2 (centres unmarked) [Compound 577],"Activity level (growth control rate), Capsella bursa-pastoris",[1]; dose 125 g a.i./ha,5 (Level 5: growth control rate is above 85%)
same,"Activity level (growth control rate), Conyza japonica",[2]; dose 125 g a.i./ha,5 (Level 5: growth control rate is above 85%)
COC(=O)C12CCCC1C(c1cc(-c3nn(C)c(C(F)(F)F)cc3=O)c(F)cc1Cl)=NO2 (centres unmarked) [Compound 579],"Activity level (growth control rate), Capsella bursa-pastoris",[1]; dose 15 g a.i./ha,5 (Level 5: growth control rate is above 85%)
same,"Activity level (growth control rate), Alopecurus japonicus",[3],4 (Level 4: growth control rate is greater than or equal to 60% and less than 85%)
COC(=O)C12CCCC1C(c1cc(-c3ncc(S(C)(=O)=O)cc3Cl)c(F)cc1Cl)=NO2 (centres unmarked) [Compound 584],"Activity level (growth control rate), Capsella bursa-pastoris",[1]; dose 125 g a.i./ha,5 (Level 5: growth control rate is above 85%)
same,"Activity level (growth control rate), Conyza japonica",[2]; dose 125 g a.i./ha,5 (Level 5: growth control rate is above 85%)
COC(=O)C12CCCC1C(c1cc(-c3ncc(C(F)(F)F)c(C)c3Cl)c(F)cc1Cl)=NO2 (centres unmarked) [Compound 586],"Activity level (growth control rate), Capsella bursa-pastoris",[1]; dose 125 g a.i./ha,5 (Level 5: growth control rate is above 85%)
same,"Activity level (growth control rate), Conyza japonica",[2]; dose 125 g a.i./ha,5 (Level 5: growth control rate is above 85%)
COC(=O)C12CCCC1C(c1cc(-c3cc(C(F)(F)F)n(C)c3)c(F)cc1Cl)=NO2 (centres unmarked) [Compound 587],"Activity level (growth control rate), Capsella bursa-pastoris",[1]; dose 125 g a.i./ha,5 (Level 5: growth control rate is above 85%)
COC(=O)C12CCCC1C(c1cc(-c3c(Cl)c(C(F)(F)F)n(C)c3Cl)c(F)cc1Cl)=NO2 (centres unmarked) [Compound 588],"Activity level (growth control rate), Capsella bursa-pastoris",[1]; dose 125 g a.i./ha,5 (Level 5: growth control rate is above 85%)
COC(=O)C12CCCC1C(c1cc(-c3cc(C(F)(F)F)nn3C)c(F)cc1Cl)=NO2 (centres unmarked) [Compound 589],"Activity level (growth control rate), Capsella bursa-pastoris",[1]; dose 125 g a.i./ha,5 (Level 5: growth control rate is above 85%)
COC(=O)C12CCCC1C(c1cc(-c3c(Br)c(C(F)(F)F)nn3C)c(F)cc1Cl)=NO2 (centres unmarked) [Compound 590],"Activity level (growth control rate), Capsella bursa-pastoris",[1]; dose 125 g a.i./ha,5 (Level 5: growth control rate is above 85%)
COC(=O)C12CCCC1C(c1cc(NC(=O)C3=C(C(=O)O)CCCC3)c(F)cc1Cl)=NO2 (centres unmarked) [Compound 597],"Activity level (growth control rate), Capsella bursa-pastoris",[1]; dose 15 g a.i./ha,5 (Level 5: growth control rate is above 85%)
same,"Activity level (growth control rate), Conyza japonica",[2]; dose 15 g a.i./ha,4 (Level 4: growth control rate is greater than or equal to 60% and less than 85%)
